The values below come from US5574071A, “Method of lowering cholesterol” (Hoffmann-La Roche Inc., priority 1993, dated 1996).

Counter-ions that a name gives are not always drawn.

The first data set has as its system LDL receptor in human hepatoma cells (Hep G2). As to the kind of experiment: Inhibition of cholesterol synthesis in human hepatoma cells (Hep G2), determined by stimulation of LDL receptors (ELISA, C7-LDL antibody). Conditions: HepG2, Table B, versus untreated cells, read-out: EC50 (concentration which increases the activity of the LDL receptor by 50% in comparison to the control). In kind it is cell-based. On the procedure: Thus, the inhibition of cholesterol :synthesis in human hepatoma cells (Hep G2) was determined on the basis of the stimulation of the LDL receptors induced in parallel. The cells were placed in microtitre plates and treated with the cholesterol synthesis inhibitor. The concentration of the LDL receptor is measured by ELISA methodology, with the C7-LDL antibody being used as the primary antibody. The EC50 values in nM/I in Table B hereinafter correspond to the concentration of cholesterol synthesis inhibitor which increases the activity of the receptor by 50% in comparison to the control, that is, untreated cells.
Background: ELISA stands for enzyme-linked immunosorbent assay.
On to `C=CCN(C)CC=CCOc1ccc(C(=O)c2ccc(Cl)cc2Cl)cc1` [Compound 7, trans-4-[[4-(allymethylamino)-2-butenyl]oxy]-2',4'-dichloro-benzophenone], for which the EC50 is 82 nM.
Still for that read-out and setting: for `C=CCN(C)C/C=C/COc1ccc(CC(=O)CCC=C(C)C)cc1F` [Example 9p, (E)-1-[4-[4-(allyl-methylamino)-but-2-enyloxy]-3-fluoro-phenyl]-6-methyl-hept-5-en-2-one] the value was 98 nM; for `C=CCN(C)CC=CCOc1ccc(C(=O)c2ccc([N+](=O)[O-])cc2)cc1` [Compound 3, trans-4-[[4-(allylmethylamino)-2-butenyl]oxy]-4'-nitro-benzophenone], 63 nM.
For the compound `C=CCN(C)Cc1ccc(-c2ccc(C(=O)c3ccc(C#N)cc3)cc2)cc1` [Compound 2, p-[[4'-[(allylmethylamino)methyl]-4-biphenylyl]carbonyl]-benzonitrile], the EC50 turned out to be 43 nM.
Same read-out and setting: for `C=CCN(C)C/C=C/COc1ccc(C(=O)c2c(F)cccc2F)cc1F` [Example 9l, (E)-[4-[4-(allyl-methyl-amino)-but-2-enyloxy]-3-fluoro-phenyl]-(2,6-difluoro-phenyl)-methanone] the value was 220 nM.
For `C=CCN(C)CCCCCCOc1ccc(C(=O)c2ccc(Br)cc2)cc1F` [Example 9c, [4-[6-(ally-methyl-amino)-hexyloxy]-3-fluoro-phenyl]-(4-bromo-phenyl)-methanone], the EC50 was determined as 203 nM.
Same read-out and setting: then `C=CCN(C)CCCCCCOc1ccc(C(=O)c2ccc(Br)cc2)c(F)c1` [Example 9d, [4-[6-(allyl-methyl-amino)-hexyloxy]-2-fluoro-phenyl]-(4-bromo-phenyl)-methanone], with 57 nM; and `C=CCN(C)C/C=C/COc1ccc(C(=O)c2ccc(C#N)cc2)cc1F` [Example 9j, (E)-[4-[4-(allyl-methyl-amino)-but-2-enyloxy]-3-fluoro-benzoyl]-benzonitrile], with 19 nM; and `C=CCN(C)C/C=C/COc1ccc(C(=O)c2ccc(Br)cc2)cc1F` [Example 9f, (E)-[4-[4-(allyl-methyl-amino)-but-2-enyloxy]-3-fluoro-phenyl]-(4-bromo-phenyl)-methanone], with 10 nM.
On the same count and under the same terms, then `C=CCN(C)C/C=C/COc1ccc(C(=O)CCC=C(C)C)cc1` [Example 9m, (E)-I -[4-[4-(allyl-methyl-amino)-but-2-enyloxy]phenyl]-5-methyl-hex-4-en-l-one], with 34 nM; and `CCN(C)C/C=C/COc1ccc(C(=O)c2ccc(Br)cc2)cc1` [Example 9s, (E)-(4-bromo-phenyl)-[4-[4-(ethyl-methyl-amino)-but-2-enyloxy]-phenyl]-methanone hydrobromide], with 122 nM; and `C=CCN(C)C/C=C/COc1ccc(C(=O)CCCC(C)C)cc1` [Example 9g, (E)-I -[4-[4-(allyl-methyl-amino)-but-2-enyloxy]-phenyl]-5-methyl-hexan-l-one], with 177 nM.
On the same count and under the same terms, for `C=CCN(C)C/C=C/COc1ccc(CC(=O)c2ccc(Br)cc2)cc1` [Example 9r, (E)-2-[4-[4-(allyl-methyl-amino)-but-2-enyloxy)-phenyl]-1-(4-bromo-phenyl)-ethanone] the value was 222 nM; for `C=CCN(C)CCCCCCOc1ccc(C(=O)c2ccc(Br)cc2)cc1` [Example 9a, [4-[6-(allyl-methyl-amino)-hexyloxy]-phenyl]-(4-bromo-phenyl)-methanone hydrobromide], 51 nM.
For the compound `C=CCN(C)C/C=C/COc1ccc(C(=O)c2ccc(Br)cc2)c(F)c1` [Example 9n, (E)-[4-[4-(allyl-methyl-amino)-but-2-enyloxy]-2-fluoro-phenyl]-(4-bromo-phenyl)-methanone], the EC50 came out at 133 nM.
The same measure, in the same setting: for `C=CCN(C)C/C=C/COc1ccc(C(=O)c2ccc(I)cc2)cc1` [Example 9h, (E)-[4-[4-(allyl-methyl-amino)-but-2-enyloxy]-phenyl]-(4-iodo-phenyl)-methanone] the value was 94 nM.
Consider `CN(C)Cc1ccc(-c2ccc(C(=O)c3ccc([N+](=O)[O-])cc3Cl)cc2)cc1` [Compound 4, 2-chloro-4-nitrophenyl 4'-[(dimethylamino)methyl]-4-biphenylyl ketone], for which the EC50 worked out at 153 nM.
Still for that read-out and setting: for `C=CCN(C)CC=CCOc1ccc(C(=O)c2ccc(Br)cc2)cc1` [Compound 1, trans-4-[[4-(allymethylamino)-2-butenyl]oxy]-4'-bromo-benzophenone] the value was 50 nM.

Tested on in another data set: not listed separately
As to the kind of experiment: Toxicity (LD50 per os in the mouse). Conditions: in vivo, po.
By LD50 is commonly meant the dose at which mortality reaches 50%. Low readings indicate a more toxic substance, high ones a less toxic substance. `CC(C)=CCCC(=O)c1ccc(-c2ccc(CN(C)C)cc2)cc1` [Compound 20] had an LD50 of 1250 to 2500 mg/kg.
